Data set [1] is described as follows: in vivo. To be noted: zebrafish, in vivo, immersion 1 hour. Here is the method: (§1) Initial drug exposure assays were performed in larval zebrafish to identify a sufficiently high concentration of drug that could be detected by liquid chromatography/tandem mass spectrometry (LC/MS/MS) analysis without causing toxicity. Maximum tolerated concentration (MTC) was determined using n=6 larvae per group. […] Compounds of interest were prepared as 2 mg/ml stocks in dimethyl sulfoxide (DMSO). […] Larvae were incubated in the drug for 1 hour at room temperature then anaesthetised on ice. For whole uptake analysis, anaesthetised larvae were transferred to 1.5 ml microfuge tubes and all excess liquid was removed. 100 µl ice cold PBS was added, samples were briefly centrifuged and all excess liquid was removed. For brain versus body uptake analysis, larvae were anaesthetised by chilling prior to decapitation using fine iridectomy scissors and No. 5 watchmaker forceps. Head and body tissue samples were collected in separate microfuge tubes on ice and excess liquid removed. 100 µl ice cold PBS was added and samples were briefly centrifuged and all excess liquid removed. The weight of the tissue sample was measured and the samples were frozen at -20 °C prior to extraction for LC/MS/MS.
(§2) Test compound was added to the well containing 50 µg/ml verapamil and larvae were incubated for a further hour at room temperature prior to tissue collection as described. For subsequent LC/MS/MS analysis, tissue samples were thawed and after addition of an internal standard (clozapine) extracted into an organic solvent (tertiary-butyl methyl ether, t-bme). […] The analytes and internal standard were ionised under atmospheric pressure chemical ionisation (APCI) conditions operating in positive ion mode. Detection was via tandem mass spectrometry (MS/MS) using selected ion monitoring (SIM). All analyses were performed using a Finnigan LCQ quadrupole ion trap mass spectrometer.
(§3) A panel of 5 drugs known to either cross or not cross the BBB in mammals were selected to test in zebrafish larvae. Larvae of different ages were exposed to these compounds at non-toxic concentrations for 1 hour prior to collection of head and trunk tissue for analysis of drug concentration. A generic extraction method was developed and LC/MS/MS was performed to analyse the concentration of drug in head and trunk tissue in larvae of different ages. Drug/tissue concentrations were normalised against a standard and the relative amount of drug in head and trunk samples was compared to determine whether the drug distribution altered with larval age (Table 2).

The test system of data set [2] is zebrafish larvae. In words: in vivo. To be noted: for Absorption (whole body) (% uptake): 15 µg/ml (5 µg/ml scopolamine) immersion 1 hour, tissue vs medium concentration; for drug level (LC/MS/MS): 5 µg/ml 1 hour. The method, then: as §1, §2, §3
For data set [3] the following is noted: known from mammals, no reference given; cited from earlier work.
The conditions of data set [4]: ref ChemIDplus; cited from earlier work.
Data set [5] relates to zebrafish larvae. In words: Dye exclusion experiments (pericardial injection, brain fluorescence quantification). Type of data set: in vivo. Here is the method:
Stocks of 2% Evans blue (961 Da) and 10% sodium fluorescein (376 Da) in 0.9% saline were prepared and stored at 4 °C. Larvae were anaesthetised by immersion in 0.2 mg/ml 3-amino benzoic acid (MS222) prior to being immobilised and positioned laterally in 3% methyl cellulose in embryo medium such that the heart was accessible. Larvae and juveniles from 2 days post-fertilisation (d.p.f.) to 30 d.p.f. were injected with 0.5 to 2 nl (depending on age) of dye or saline control into the pericardial region, using a standard zebrafish microinjection apparatus. Fish were transferred to fresh embryo medium to recover from anaesthesia, then viewed using a fluorescence dissecting microscope at 1 hour intervals to determine the time of uptake of the dye into the circulation and the time at which dye had permeated from the circulation into non-vascular body tissue. Representative images of dye distribution in vivo were taken on a Zeiss AxioZoom V16 microscope with Apotome. Dye and saline injected larvae were anaesthetised at 4 or 6 hours after injection and fixed in 4% paraformaldehyde in PBS. Ten larvae per age group and injection treatment were embedded in Sakura Tissue-Tek OCT (Bayer, Newbury, UK) and frozen parasagittal sections were cut at 10 µm thickness.
Sections were visualised without mounting medium by fluorescence microscopy on an Olympus BX51 microscope. Three midline sagittal sections from each larva were identified and images were captured using a ColorView camera (Olympus) and AnalySis software (Soft Imaging System). The fluorescence intensity within the brain was quantified for each midline section of each larva in each treatment group using colour threshold and area measurements in AnalySis. Mean values, standard deviations and Student’s t-tests were calculated using Excel software (Microsoft Office).
Rhodamine 123 (R123) was dissolved in 10% ethanol/0.9% saline to make a 0.5 mg/ml stock. […] Quantification of fluorescence in the brain was performed as described above.

Data set [6] relates to Abcb1/4/5. In words: Rhodamine 123 dye exclusion in the presence of verapamil. Type of data set: in vivo, zebrafish. The conditions noted are these: 8 d.p.f. and 10 d.p.f.; verapamil 50 µg/ml; 3 hours after injection. The method, then: Dye exclusion experiments on larvae at 3, 5, 8 and 10 d.p.f. were performed as described above using 0.2 nl R123. Some larvae were exposed to verapamil at 50 µg/ml for 2 hours prior to and during intrapericardial injection of R123 and for 3 hours after injection. At 3 hours after injection, larvae were anaesthetised and fixed in 4% PFA prior to processing for frozen sections. Quantification of fluorescence in the brain was performed as described above.

Where [7] appears, read: 15 µg/ml, Head concentration, 5 d.p.f.
[8] abbreviates: 15 µg/ml, Head concentration, 8 d.p.f.
[9] abbreviates: 15 µg/ml, Trunk concentration, 5 d.p.f.
Where [10] appears, read: 15 µg/ml, Trunk concentration, 8 d.p.f.
Where [11] appears, read: pericardial injection, brain fluorescence on frozen sections vs saline.

Results on eight molecules are retold here after paper PMC3797749, “Functional Characterisation of the Maturation of the Blood-Brain Barrier in Larval Zebrafish” (PLoS ONE, 2013).

Consider `O=C(CCCN1CCC(O)(c2ccc(Cl)cc2)CC1)c1ccc(F)cc1` [Haloperidol], for which the concentration at 1 h in data set [1] (setting [7]) amounted to 116000 ng/g; in data set [1] (setting [8]), 136000 ng/g; in data set [1] (setting [9]), 104000 ng/g; in data set [1] (setting [10]), 149000 ng/g; in data set [1] (Head concentration, 10 d.p.f.), 113000 ng/g; in data set [1] (Trunk concentration, 10 d.p.f.) it was 101000 ng/g. Further, the “amount of drug absorbed, larval tissue as % of the medium concentration” value in data set [2] (1 hour exposure, lowest and highest value over drugs and ages) turned out to be 949%. The “Absorption (whole body) (% uptake)” value in data set [2] (5 d.p.f.) amounted to 732.6%; in data set [2] (8 d.p.f.), 949.5%; in data set [2] (10 d.p.f.), 713.5%. Also, in data set [3], the “BBB penetration in mammals” value is given as “(penetrant)”.

As for `CN(C)CCOC(c1ccccc1)c1ccccc1` [Diphenhydramine], the concentration at 1 h in data set [1] (setting [7]) amounted to 21600 ng/g; in data set [1] (setting [8]), 31200 ng/g; in data set [1] (setting [9]), 21100 ng/g; in data set [1] (setting [10]), 24000 ng/g; in data set [1] (Head concentration, 10 d.p.f.), 52800 ng/g; in data set [1] (Trunk concentration, 10 d.p.f.), 54800 ng/g.

For the molecule Scopolamine N-butyl bromide, the LogP in data set [4] is listed as -1.11.

`Cc1cc(-c2ccc(/N=N/c3ccc4c(S(=O)(=O)O)cc(S(=O)(=O)O)c(N)c4c3O)c(C)c2)ccc1/N=N/c1ccc2c(S(=O)(=O)O)cc(S(=O)(=O)O)c(N)c2c1O` [Evans blue]: in data set [5] (zebrafish, in vivo, 3 h), the “larval age at which the injected dye is excluded from the brain” value (“larval age” below) turned out to be 5 d.p.f.

Take `O=C([O-])c1ccccc1-c1c2ccc(=O)cc-2oc2cc([O-])ccc12.[Na+].[Na+]` [Sodium fluorescein, sodium fluorescein]: the “larval age” value in data set [5] (setting [11]) is listed as 10 d.p.f.

In the case of `CN1[C@@H]2C[C@@H](OC(=O)[C@H](CO)c3ccccc3)C[C@H]1[C@@H]1O[C@@H]12` [Scopolamine], in data set [2] (5 d.p.f.), the “drug level (LC/MS/MS)” value is given as “below the detection limits”. The “drug level (LC/MS/MS)” value in data set [2] (8 d.p.f.) was “below the detection limits”. Further, in data set [2] (10 d.p.f., immersion 1 hour), the Head concentration result is on record as “.65 µg/g” and the Trunk concentration result is recorded as “.63 µg/g”.

For the molecule `Clc1ccc2c(c1)CCc1cccnc1C2=C1CCNCC1` [Desloratadine], the “Absorption (whole body) (% uptake)” value in data set [2] (5 d.p.f.) was found to be 14.8%; in data set [2] (10 d.p.f.), 28.5%.

Regarding `COC(=O)c1ccccc1-c1c2ccc(=N)cc-2oc2cc(N)ccc12` [Rhodamine 123], the “larval age” value in data set [5] (setting [11]) is listed as 8 d.p.f. Besides, the “exclusion of R123 from the brain in the presence of verapamil” value in data set [6] was “failed to be excluded”.
